Literature values, collected in patent US5565431A, “Cancer cell inhibitors and method” (priority 1994, dated 1996).

How the values were obtained:
[1] = system: seven colon cancer cell lines; conditions: Garcia et al. (9)
[2] = system: normal colonic mucosa cells; conditions: Garcia et al. (9)

CO[C@H]1[C@@H](OC)C[C@H](C)[C@@H](OC)C2=CC(=O)C=C(NC(=O)/C(C)=C/C=C\[C@H](OC)[C@@H](OC(N)=O)/C(C)=C/[C@@H]1C)C2=O [herbimycin A]
Inhibition of seven colon cancer cell lines [1]: greater than 40% | Inhibition of normal colonic mucosa cells [2]: 12%
